Reference: patent US12030896B2, “PIKfyve inhibitors” (Mayo Foundation for Medical Education and Research, priority 2018, dated 2024)
Several values for one entry are separate records, joined by “and”; a condition that tells them apart may be missing. Identical values can stand only once.

Legend:
[1] = tested on: Murine lymphoma cells (E2409, EC+F); assay: Killing of murine lymphoma cells, 48 hour assay; type: cell-based
Procedure: All experiments in FIG. 6 were performed using RPMI media (Life Technologies) was used as the base formulation and culture medium also contained 1 mM Sodium Pyruvate, 100 mM HEPES, 2 mM additional L-Glutamine, 55 uM 2-mercaptoethanol, and 1×MEM NEAA Solution (all from Life Technologies). Trypsin was not necessary for these non-adherent cells. Presto Blue reagent (Life Technologies) was used as an endpoint assay using the same procedure described in previously for Alamar Blue, with a 30 minute incubation time.

[2] = Pharmacokinetic study of Example 1 in mouse (IV, IP, PO); type: in vivo, Male C57BL/6 Mouse; settings: for concentration at 0.25 h / concentration at 0.5 h / concentration at 1 h / concentration at 2 h / concentration at 4 h: male, C57BL/6, mouse, plasma, ip
Procedure: Species: Male C57BL/6 Mouse, fasted.
PK/PD testing of the compound was performed in mice, after IP, IV, or oral administration.

[3] = IP 30 mg/kg, individual mice M4-M6, 30 mg/kg
[4] = IV 5 mg/kg, individual mice M1-M3, 5 mg/kg
[5] = PO 30 mg/kg, individual mice M7-M9, 30 mg/kg

For `Cc1ccc(Nc2nc(N/N=C/c3c[nH]c4ccccc34)nc(N3CCOCC3)n2)cc1` [Example 1, (E)-4-(2-((1H-indol-3-yl)methylene)hydrazinyl)-6-morpholino-N-(p-tolyl)-1,3,5-triazin-2-amine], the cell killing [1] was “killed by relatively low concentrations”, the plasma concentration ([2]; IP 30 mg/kg, 0.250 h, individual mice M4-M6, 30 mg/kg) was 299 ng/mL and 314 ng/mL and the plasma concentration ([2]; IP 30 mg/kg, 0.500 h, individual mice M4-M6, 30 mg/kg) was 430 ng/mL and 376 ng/mL. The plasma concentration ([2]; IP 30 mg/kg, 1.00 h, individual mice M4-M6, 30 mg/kg) was 636 ng/mL and 492 ng/mL, the plasma concentration ([2]; IP 30 mg/kg, 2.00 h, individual mice M4-M6, 30 mg/kg) was 441 ng/mL and 523 ng/mL and the plasma concentration ([2]; IP 30 mg/kg, 4.00 h, individual mice M4-M6, 30 mg/kg) was 232 ng/mL and 158 ng/mL. The plasma concentration ([2]; IP 30 mg/kg, 6.00 h, individual mice M4-M6, 30 mg/kg) was 115 ng/mL and 103 ng/mL, the plasma concentration ([2]; IP 30 mg/kg, 24.0 h, individual mice M4-M6, 30 mg/kg) was 34.1 ng/mL and 40.7 ng/mL and the Tlast ([2]; IP 30 mg/kg, individual mice M4-M6) was 24.0 h. The AUC0-last [2, 3] was 3110 ng·h/mL and 2925 ng·h/mL, the AUC(0-inf) [2, 3] was 3512 ng·h/mL and 3588 ng·h/mL and the AUCExtra [2, 3] was 18.0% and 11.5% and 18.5%. For the same compound, the AUMCExtra [2, 3] was 54.7% and 41.4% and 56.7%, the Cmax [2, 3] was 636 ng/mL and 523 ng/mL and the MRT0-inf [2, 3] was 9.91 h and 13.1 h. The MRT0-last [2, 3] was 6.56 h and 6.98 h, the T1/2 [2, 3] was 8.19 h and 11.3 h and the Tmax [2, 3] was 2.00 h. It also gave an AUCExtra ([2]; IP 30 mg/kg, mean) of 16.0%, an AUMCExtra ([2]; IP 30 mg/kg, mean) of 50.9% and a Tlast ([2]; IP 30 mg/kg, mean) of 24.0 h. The peak concentration ([2]; IP, single 30 mg/kg dose) was 534 ng/mL, the plasma concentration ([2]; IV 5 mg/kg, 5 min, individual mice M1-M3, 5 mg/kg) was 1500 ng/mL and 2090 ng/mL and the plasma concentration ([2]; IV 5 mg/kg, 0.250 h, individual mice M1-M3, 5 mg/kg) was 1270 ng/mL and 1530 ng/mL. The plasma concentration ([2]; IV 5 mg/kg, 0.500 h, individual mice M1-M3, 5 mg/kg) was 1060 ng/mL and 1130 ng/mL, the plasma concentration ([2]; IV 5 mg/kg, 1.00 h, individual mice M1-M3, 5 mg/kg) was 591 ng/mL and 678 ng/mL and the plasma concentration ([2]; IV 5 mg/kg, 2.00 h, individual mice M1-M3, 5 mg/kg) was 169 ng/mL and 204 ng/mL. The plasma concentration ([2]; IV 5 mg/kg, 4.00 h, individual mice M1-M3, 5 mg/kg) was 16.7 ng/mL and 16.4 ng/mL, the plasma concentration ([2]; IV 5 mg/kg, 6.00 h, individual mice M1-M3, 5 mg/kg) was 4.04 ng/mL and 3.44 ng/mL and the plasma concentration ([2]; IV 5 mg/kg, 24.0 h, individual mice M1-M3) was “BQL”. The Tlast ([2]; IV 5 mg/kg, individual mice M1-M3) was 6.00 h, the AUC0-last [2, 4] was 1539 ng·h/mL and 1820 ng·h/mL and the AUC(0-inf) [2, 4] was 1543 ng·h/mL and 1823 ng·h/mL. The AUCExtra [2, 4] was 0.381% and 0.251% and 0.171%, the AUMCExtra [2, 4] was 2.79% and 1.96% and 1.39% and the C0 [2, 4] was 1630 ng/mL and 2442 ng/mL. The Cl [2, 4] was 54.0 mL/min/kg and 45.7 mL/min/kg, the MRT0-inf [2, 4] was 0.890 h and 0.847 h and the MRT0-last [2, 4] was 0.875 h and 0.836 h. The T1/2 [2, 4] was 0.665 h and 0.628 h, the Vdss [2, 4] was 2.89 L/kg and 2.32 L/kg and the AUCExtra ([2]; IV 5 mg/kg, mean) was 0.268%. The AUMCExtra ([2]; IV 5 mg/kg, mean) was 2.05%, the Tlast ([2]; IV 5 mg/kg, mean) was 6.00 h and the plasma concentration ([2]; PO 30 mg/kg, 0.250 h, individual mice M7-M9, 30 mg/kg) was 59.6 ng/mL and 65.0 ng/mL. For the same compound, the plasma concentration ([2]; PO 30 mg/kg, 0.500 h, individual mice M7-M9, 30 mg/kg) was 84.2 ng/mL and 115 ng/mL, the plasma concentration ([2]; PO 30 mg/kg, 1.00 h, individual mice M7-M9, 30 mg/kg) was 145 ng/mL and 55.8 ng/mL and 75.3 ng/mL and the plasma concentration ([2]; PO 30 mg/kg, 2.00 h, individual mice M7-M9, 30 mg/kg) was 58.6 ng/mL and 16.2 ng/mL and 16.7 ng/mL. For the same compound, the plasma concentration ([2]; PO 30 mg/kg, 4.00 h, individual mice M7-M9, 30 mg/kg) was 12.7 ng/mL and 5.98 ng/mL and 3.78 ng/mL, the plasma concentration ([2]; PO 30 mg/kg, 6.00 h, individual mice M7-M9, 30 mg/kg) was 11.3 ng/mL and 7.80 ng/mL and the plasma concentration ([2]; PO 30 mg/kg, 24.0 h, individual mice M7-M9) was “BQL”. For the same compound, the Tlast ([2]; PO 30 mg/kg, individual mice M7-M9) was 6.00 h, the AUC0-last [2, 5] was 291 ng·h/mL and 129 ng·h/mL and 145 ng·h/mL and the AUC(0-inf) [2, 5] was 158 ng·h/mL and 162 ng·h/mL. For the same compound, the AUCExtra [2, 5] was 6.68% and 18.1% and 10.7%, the AUMCExtra [2, 5] was 25.1% and 52.3% and 41.3% and the Cmax [2, 5] was 84.2 ng/mL and 115 ng/mL. For the same compound, the MRT0-inf [2, 5] was 2.96 h and 2.14 h, the MRT0-last [2, 5] was 1.72 h and 1.41 h and the T1/2 [2, 5] was 1.76 h and 1.55 h. For the same compound, the AUCExtra ([2]; PO 30 mg/kg, mean) was 11.9%, the AUMCExtra ([2]; PO 30 mg/kg, mean) was 39.6% and the Tlast ([2]; PO 30 mg/kg, mean) was 6.00 h. It also gave a concentration at 0.25 h ([2]; 30 mg/kg, IP 30 mg/kg, 0.250 h, individual mice M4-M6) of 242 ng/mL, a concentration at 0.25 h ([2]; 30 mg/kg, IP 30 mg/kg, 0.250 h, mean) of 285 ng/mL and a concentration at 0.5 h ([2]; 30 mg/kg, IP 30 mg/kg, 0.500 h, individual mice M4-M6) of 381 ng/mL. The concentration at 0.5 h ([2]; 30 mg/kg, IP 30 mg/kg, 0.500 h, mean) was 396 ng/mL, the concentration at 1 h ([2]; 30 mg/kg, IP 30 mg/kg, 1.00 h, individual mice M4-M6) was 443 ng/mL and the concentration at 1 h ([2]; 30 mg/kg, IP 30 mg/kg, 1.00 h, mean) was 524 ng/mL. It also gave a concentration at 2 h ([2]; 30 mg/kg, IP 30 mg/kg, 2.00 h, individual mice M4-M6) of 367 ng/mL, a concentration at 2 h ([2]; 30 mg/kg, IP 30 mg/kg, 2.00 h, mean) of 444 ng/mL and a concentration at 4 h ([2]; 30 mg/kg, IP 30 mg/kg, 4.00 h, individual mice M4-M6) of 136 ng/mL. It also gave a concentration at 4 h ([2]; 30 mg/kg, IP 30 mg/kg, 4.00 h, mean) of 175 ng/mL.
